Measurements published in patent US20220400686A1, “COMPOSITIONS AND METHODS FOR ON-DEMAND RELEASE OF ANTIMICROBIAL AGENTS” (priority 2019, published 2022).

Experiments:
S. aureus = assay: Specific and nonspecific cleavage in human serum with/without MN, read out by S. aureus culture in the supernatant; type: cell-based; details: PEGDMA-Oligo-Gentamicin hydrogel incubated 2 h in human serum with/without MN
Procedure: The data also support faster oligo cleavage by MN than by other nucleases present in the human serum.
Briefly, the PEGDMA-Oligo-Gentamicin hydrogel (50 μL, 8 mm in diameter, n=3) was immersed in 0.25 mL of human serum with or without MN (0.1 U/mL) and incubated at 37° C. for 2 h. The hydrogel was then removed while 0.25 mL of LB media containing 250 CFU S. aureus was added. The culture of S. aureus was incubated for 24 h at 37° C. with shaking.

[1] = molecular target: T1, micrococcal nuclease (MN) (Staphylococcus aureus, UniProt P00644); assay: Enzymatic oligo digestion by micrococcal nuclease monitored by GPC; type: biochemical, S. aureus
T1 construct: purchased Worthington Biochemical Corporation; host or cells: S. aureus strain ATCC #27735
Text: The cleavage of the oligo probe (synthesized and purified by Integrated DNA Technologies) by MN (source: S. aureus strain ATCC #27735; Worthington Biochemical Corporation) was first validated prior to its conjugation with vancomycin or PEGDMA hydrogel.
The digestion of the methacrylated oligo by micrococcal nuclease (MN, 0.1-1.0 U/μL) was monitored by aqueous gel permeation chromatography (GPC) on a Varian ProStar HPLC system with two PL Aquagel-OH columns (Agilent Technologies) and a UV detector. The eluent was aqueous PBS (10 mM, pH 7.4) and the flow rate was 1.0 mL/min. Detection of the oligo probe and its fragments upon digestion was enabled by UV absorbance at 260 nm. Extinction coefficient of 2′-O-methyl-modified nucleotides was assumed to be the same as that of RNA. All measurements were performed in triplicates.

Substance | total CFU count of S. aureus after 24-h culture in supernatant (S. aureus) | cleavage of the oligo by MN (fragments by GPC, UV 260 nm) ([1]; MN 0.1 U/μL, PBS pH 7.4 10 mM, physiological concentration of calcium ions) | cleavage of the oligo by MN ([1]; absence of calcium ions)
/5Carboxyl/*mC*mG*TT*mC*mG*/3Acryd/ [6 PS] | increased accordingly |  | 
/5Carboxyl/*mC*mGTTmC*mG*/3Acryd/ [4 PS] | increased accordingly |  | 
/5Carboxyl/mCmGTTmCmG/3Acryd/ [0 PS oligo] | least or no CFU count | two fragments | very little cleavage
